The text below walks through data of ChEMBL document CHEMBL4483862, “Open-source discovery of chemical leads for next-generation chemoprotective antimalarials” (2018).

Each structure is given as a SMILES string.

The assay concerns Plasmodium berghei. In words: Luciferase/luciferin-expressing antifolate-resistant parasites were used to infect a culture of HepG2 cells that were pre-incubated with compounds. Infected hepatocytes emit light due to the luciferase reaction. Assay results are presented as the percent inhibition of light emission compared to control. […]. It counts as functional. As to conditions: sporozoite; for IC90: read-out: LUCIFERASE INFECTION ASSAY - IC90.

Regarding `CC(=O)c1ccc(-c2ccc(C(=O)Nc3nc(-c4ccccn4)cs3)o2)cc1`, the concentration for an effect of 90% (IC90) turned out to be 7.29 µM. The IC50 (HEPG2TOX_HILL_SLOPE 2.67, HEPG2TOX_R_SQUARED 0.908, PBLUC_HILL_SLOPE 30.3, PBLUC_R_SQUARED 0.327, read-out: LUCIFERASE INFECTION ASSAY - IC50) was 6.78 µM.
Consider `COc1cc(-c2cnc3cnc(-c4ccc(N)nc4)cn23)ccc1O`, for which the IC90 came out at 4.1 µM. Also, for the setting “HEPG2TOX_HILL_SLOPE 2.67, HEPG2TOX_R_SQUARED 0.695, PBLUC_HILL_SLOPE 3.91, PBLUC_R_SQUARED 0.793, read-out: LUCIFERASE INFECTION ASSAY - IC50”, the IC50 came to 2.33 µM.
With `O=C(/C(=N/Nc1ccc([N+](=O)[O-])cc1)C(=O)C(F)(F)F)c1cccs1`, the 90% effect concentration (IC90) amounted to 1 µM. The IC50 (HEPG2TOX_HILL_SLOPE 2.64, HEPG2TOX_R_SQUARED 0.853, PBLUC_HILL_SLOPE 14.9, PBLUC_R_SQUARED 0.662, read-out: LUCIFERASE INFECTION ASSAY - IC50) was 0.866 µM.
In the case of `COc1ccc(-c2cnc3cnc(-c4cccc(F)c4)cn23)cc1`, the IC90 worked out at 7.12 µM. The IC50 (HEPG2TOX_HILL_SLOPE 2.64, HEPG2TOX_R_SQUARED 0.99, PBLUC_HILL_SLOPE 1.99, PBLUC_R_SQUARED 0.779, read-out: LUCIFERASE INFECTION ASSAY - IC50) was 2.36 µM.
On to `COc1cccc(-c2ccc3ncc(-c4ccc5c(c4)OCO5)n3n2)c1`, for which the 90% effect concentration (IC90) was found to be 9 µM. Further, the half-inhibitory concentration (IC50) (HEPG2TOX_HILL_SLOPE 2.64, HEPG2TOX_R_SQUARED 0.763, PBLUC_HILL_SLOPE 3.7, PBLUC_R_SQUARED 0.498, read-out: LUCIFERASE INFECTION ASSAY - IC50) is 4.97 µM.
As for `NC(=O)c1ccc(-c2ccnc3n[nH]c(-c4cccc(F)c4)c23)cc1`, the concentration for an effect of 90% (IC90) was found to be 3.73 µM. In addition, the IC50 (HEPG2TOX_HILL_SLOPE 2.67, HEPG2TOX_R_SQUARED 0.872, PBLUC_HILL_SLOPE 9.91, PBLUC_R_SQUARED 0.595, read-out: LUCIFERASE INFECTION ASSAY - IC50) came to 2.99 µM.
Regarding `CC1CCN(Cc2csc(NC(=O)c3ccc(SCc4cscn4)cc3)n2)CC1`, the IC90 is 9.76 µM. In addition, the half-maximal inhibitory concentration (IC50) (HEPG2TOX_HILL_SLOPE 2.61, HEPG2TOX_R_SQUARED 0.966, PBLUC_HILL_SLOPE 9.48, PBLUC_R_SQUARED 0.381, read-out: LUCIFERASE INFECTION ASSAY - IC50) turned out to be 7.74 µM.
Turning to `COC(=O)c1ccc(CNC(=O)NCCN2c3ccccc3CCC2C)cc1` (stereo unspecified), the IC90 was determined as 3.88 µM. Besides, for the setting “HEPG2TOX_HILL_SLOPE 2.63, HEPG2TOX_R_SQUARED 0.63, PBLUC_HILL_SLOPE 12, PBLUC_R_SQUARED 0.668, read-out: LUCIFERASE INFECTION ASSAY - IC50”, the IC50 is 3.23 µM.
`Cc1ccc(-n2nnnc2SCc2c(F)cccc2Cl)c(C)c1`: the concentration for an effect of 90% (IC90) was greater than 9.46 µM. Besides, for the setting “HEPG2TOX_HILL_SLOPE 2.61, HEPG2TOX_R_SQUARED 0.917, PBLUC_HILL_SLOPE 6.38, PBLUC_R_SQUARED 0.299, read-out: LUCIFERASE INFECTION ASSAY - IC50”, the IC50 turned out to be 8.85 µM.
For `Fc1ccc(-c2csc3ncnc(Sc4nnnn4-c4ccccc4)c23)cc1`, the 90% effect concentration (IC90) worked out at 3.53 µM. The IC50 (HEPG2TOX_HILL_SLOPE 2.6, HEPG2TOX_R_SQUARED 0.978, PBLUC_HILL_SLOPE 15.6, PBLUC_R_SQUARED 0.498, read-out: LUCIFERASE INFECTION ASSAY - IC50) is 3.07 µM.
With `O=C(C1=NNCC1c1ccccc1)c1cc2ccccc2c2ccccc12` (stereo unspecified), the IC90 is greater than 9.42 µM. Further, the 50% inhibitory concentration (IC50) (HEPG2TOX_HILL_SLOPE 2.61, HEPG2TOX_R_SQUARED 0.965, PBLUC_HILL_SLOPE 1.24, PBLUC_R_SQUARED 0.535, read-out: LUCIFERASE INFECTION ASSAY - IC50) was 3.17 µM.
Take `Cc1ccc(N2CC(C(=O)Nc3cc(C4CC4)n[nH]3)CC2=O)cc1` (stereo unspecified): the IC90 is 2.23 µM. Further, under “HEPG2TOX_HILL_SLOPE 2.65, HEPG2TOX_R_SQUARED 0.943, PBLUC_HILL_SLOPE 2.62, PBLUC_R_SQUARED 0.892, read-out: LUCIFERASE INFECTION ASSAY - IC50”, the IC50 was determined as 0.963 µM.
On to `Clc1cccc(-c2ccnc3n[nH]c(-c4cccnc4)c23)c1`, for which the IC90 stood at 4.14 µM. Also, for the setting “HEPG2TOX_HILL_SLOPE 2.64, HEPG2TOX_R_SQUARED 0.942, PBLUC_HILL_SLOPE 10.9, PBLUC_R_SQUARED 0.513, read-out: LUCIFERASE INFECTION ASSAY - IC50”, the 50% inhibitory concentration (IC50) was found to be 3.39 µM.
Take `O=C(COC(=O)c1cc(-c2ccccc2)c(N2CCOCC2)s1)NCc1cccs1`: the concentration for an effect of 90% (IC90) stood at 7.35 µM. Further, for the setting “HEPG2TOX_HILL_SLOPE 2.63, HEPG2TOX_R_SQUARED 0.904, PBLUC_HILL_SLOPE 1.69, PBLUC_R_SQUARED 0.47, read-out: LUCIFERASE INFECTION ASSAY - IC50”, the 50% inhibitory concentration (IC50) was 2 µM.
Take `CCC(C)NC(=O)c1c(NC(=O)c2ccc(F)c(Cl)c2)nc2ccc(C)cn12` (stereo unspecified): the 90% effect concentration (IC90) was determined as 5.96 µM. Moreover, the half-maximal inhibitory concentration (IC50) (HEPG2TOX_HILL_SLOPE 2.61, HEPG2TOX_R_SQUARED 0.962, PBLUC_HILL_SLOPE 2.74, PBLUC_R_SQUARED 0.471, read-out: LUCIFERASE INFECTION ASSAY - IC50) is 2.67 µM.
For the molecule `CO/N=C(/CS(=O)(=O)c1ccc(OC)cc1)c1ccc(Cl)cc1`, the concentration for an effect of 90% (IC90) is greater than 9.33 µM. Besides, for the setting “HEPG2TOX_HILL_SLOPE 2.67, HEPG2TOX_R_SQUARED 0.896, PBLUC_HILL_SLOPE 4.33, PBLUC_R_SQUARED 0.342, read-out: LUCIFERASE INFECTION ASSAY - IC50”, the IC50 was determined as 6.46 µM.
`CC(=O)OC1CCC2(C)C3CCC4(C)C(C5=CC(=O)OC5)CCC4(O)C3CCC2(O)C1` (stereo unspecified): the IC90 is greater than 7.63 µM. The IC50 (HEPG2TOX_HILL_SLOPE 2.67, HEPG2TOX_R_SQUARED 0.733, PBLUC_HILL_SLOPE 2.15, PBLUC_R_SQUARED 0.208, read-out: LUCIFERASE INFECTION ASSAY - IC50) came out at 3 µM.
Turning to `O=C1C(=O)N(CN2CCc3sccc3C2c2ccccc2)c2ccc(F)cc21` (stereo unspecified), the concentration for an effect of 90% (IC90) was 2.51 µM. Where the note is “HEPG2TOX_HILL_SLOPE 2.62, HEPG2TOX_R_SQUARED 0.103, PBLUC_HILL_SLOPE 2.21, PBLUC_R_SQUARED 0.632, read-out: LUCIFERASE INFECTION ASSAY - IC50”, the concentration for half-maximal inhibition (IC50) came out at 0.929 µM.
Turning to `C/C(=N\NC(=S)Nc1ccc(Cl)cc1)c1ccn[nH]1`, the IC90 came out at 4.51 µM. Besides, under “HEPG2TOX_HILL_SLOPE 2.63, HEPG2TOX_R_SQUARED 0.844, PBLUC_HILL_SLOPE 3.05, PBLUC_R_SQUARED 0.682, read-out: LUCIFERASE INFECTION ASSAY - IC50”, the IC50 was found to be 2.19 µM.
Regarding `CC(=O)c1cccc(-c2cnc3c(Nc4cccc(OC(F)(F)C(F)F)c4)nccn23)c1`, the IC90 came out at 6 µM. Further, the half-inhibitory concentration (IC50) (HEPG2TOX_HILL_SLOPE 2.66, HEPG2TOX_R_SQUARED 0.947, PBLUC_HILL_SLOPE 1.76, PBLUC_R_SQUARED 0.616, read-out: LUCIFERASE INFECTION ASSAY - IC50) was found to be 1.72 µM.
With `COc1cc(C(=O)Nc2ccc(-c3csc(N4CCOCC4)n3)cc2)cc(Cl)c1OC`, the 90% effect concentration (IC90) was greater than 10 µM. The concentration for half-maximal inhibition (IC50) (HEPG2TOX_HILL_SLOPE 2.64, HEPG2TOX_R_SQUARED 0.944, PBLUC_HILL_SLOPE 1.81, PBLUC_R_SQUARED 0.542, read-out: LUCIFERASE INFECTION ASSAY - IC50) was 3.98 µM.
Regarding `Cc1onc(-c2ccc(Cl)cc2Cl)c1-c1csc(Nc2cc(C(F)(F)F)cc(C(F)(F)F)c2)n1`, the IC90 amounted to 2.73 µM. The concentration for half-maximal inhibition (IC50) (HEPG2TOX_HILL_SLOPE 2.62, HEPG2TOX_R_SQUARED 0.945, PBLUC_HILL_SLOPE 2.66, PBLUC_R_SQUARED 0.706, read-out: LUCIFERASE INFECTION ASSAY - IC50) is 1.19 µM.
Turning to `O=C(c1c(-c2ccccc2)c2c3n(c(CN(C(=O)C4CC4)c4ccccc4)nn13)CCCC2)C1CC1`, the concentration for an effect of 90% (IC90) was greater than 10 µM. For the same molecule, where the note is “HEPG2TOX_HILL_SLOPE 2.64, HEPG2TOX_R_SQUARED 0.879, read-out: LUCIFERASE INFECTION ASSAY - IC50”, the IC50 is greater than 10 µM.
As to `COc1ccc(-c2csc3ncnc(NCc4ccc(-n5ccnc5)nc4)c23)cc1`, the 90% effect concentration (IC90) is 10 µM. For the same molecule, for the setting “HEPG2TOX_HILL_SLOPE 2.62, HEPG2TOX_R_SQUARED 0.957, PBLUC_HILL_SLOPE 10.9, PBLUC_R_SQUARED 0.671, read-out: LUCIFERASE INFECTION ASSAY - IC50”, the IC50 stood at 8.17 µM.
As for `CN(C)c1nc(N)nc(CSc2nc(N)c3c4c(sc3n2)CCCC4)n1`, the IC90 is greater than 10 µM. For the same molecule, for the setting “HEPG2TOX_HILL_SLOPE 2.63, HEPG2TOX_R_SQUARED 0.627, PBLUC_HILL_SLOPE 2.91, PBLUC_R_SQUARED 0.214, read-out: LUCIFERASE INFECTION ASSAY - IC50”, the half-maximal inhibitory concentration (IC50) was 9.21 µM.
`CC(=O)Nc1cccc(Nc2cc3c(cn2)ncn3CC2CC2)c1`: the concentration for an effect of 90% (IC90) was greater than 10 µM. Besides, the 50% inhibitory concentration (IC50) (HEPG2TOX_HILL_SLOPE 2.64, HEPG2TOX_R_SQUARED 0.966, PBLUC_HILL_SLOPE 2.21, PBLUC_R_SQUARED 0.507, read-out: LUCIFERASE INFECTION ASSAY - IC50) amounted to 6.65 µM.
As to `FC(F)Oc1ccc(NC(=S)NNC(=S)Nc2ccc(Cl)cc2)cc1`, the concentration for an effect of 90% (IC90) worked out at 4.51 µM. In addition, the IC50 (HEPG2TOX_HILL_SLOPE 2.66, HEPG2TOX_R_SQUARED 0.926, PBLUC_HILL_SLOPE 1.61, PBLUC_R_SQUARED 0.703, read-out: LUCIFERASE INFECTION ASSAY - IC50) came out at 1.16 µM.
Turning to `COc1ccc(-c2cnc3ccc(NCc4ccc(S(N)(=O)=O)cc4)nn23)cn1`, the IC90 was greater than 8.04 µM. Moreover, under “HEPG2TOX_HILL_SLOPE 2.67, HEPG2TOX_R_SQUARED 0.289, PBLUC_HILL_SLOPE 3.8, PBLUC_R_SQUARED 0.626, read-out: LUCIFERASE INFECTION ASSAY - IC50”, the IC50 worked out at 4.71 µM.

In general, IC50 refers to the concentration at which inhibition is half-maximal. The IC90 is the point of the concentration-response curve where the effect stands at 90%.
